Measurements taken from patent US20080063599A1, “Compounds Which Can Be Used To Diagnose And Monitor Diseases Associated With The Formation Of Amyloid Protein Fibrils” (priority 2002, published 2008).

Test system: amyloid plaques in mice brains
Experiment: MicroPET images of transgenic mice
Assay type: in vivo
Settings: Tg2576 mice; dynamic microPET, total acquisition time 55-77 min
Experimental: All the animal experiments were performed according to the established animal protocol. The transgenic mice (Tg2576) were anaesthetised via intravenous injection with a 40 uL solution of ketamine and xylazine (4:1) before the injection of the tracer radiolabelled with ^18F: 5-[^18F]-fluoro-8-hydroxy-7-iodoquinoline. The mice were placed in supine position and scanned using microPET. A dynamic microPET study was performed using 15 planes and 15 to 16 frames (dynamic sequence: 6×30 s, 4×1 min, 2×5 min, 2×10 min, and 1-2×20 min) for a total acquisition time of 55-77 min. Images were reconstructed using the appropriate algorithms (Filter-back projection algorithm) and a cut-off frequency of 0.5. Images were reconstructed by means of a filtered iteration resulting in an image resolution of 1.8 mm and a volumetric resolution of about 6 mm^3. Transverse planes were reoriented to obtain the coronal and axial sections of the mice brains. Regional uptake is expressed in activity per gram of tissue.

SMILES: Oc1c(I)cc([18F])c2cccnc12 [5-[^18F]-fluoro-8-hydroxy-7-iodoquinoline]
- detection of amyloid plaques in microPET images: adequate detection of the amyloid plaques
